Laboratory results: patent publication US10435369B2, “Tricyclic sulfones as ROR gamma modulators” (BRISTOL-MYERS SQUIBB COMPANY, priority 2016, dated 2019)
Where two headings read alike, the source gives them in different places.

Target: RORγ receptor (Homo sapiens, UniProt P51449)
Assay: RORγ Gal4 reporter assay (Gal4-luciferase, inverse agonist activity)
Type: cell-based
Description: General RORγ Gal4 Reporter Assay
IC50 values were determined.

[1] = Jurkat cells stably over-expressing hRORγ, Gal4-luciferase reporter, overnight incubation, read-out: RORγ Gal4, IC50

Sequence of RORγ receptor (P51449 269-508): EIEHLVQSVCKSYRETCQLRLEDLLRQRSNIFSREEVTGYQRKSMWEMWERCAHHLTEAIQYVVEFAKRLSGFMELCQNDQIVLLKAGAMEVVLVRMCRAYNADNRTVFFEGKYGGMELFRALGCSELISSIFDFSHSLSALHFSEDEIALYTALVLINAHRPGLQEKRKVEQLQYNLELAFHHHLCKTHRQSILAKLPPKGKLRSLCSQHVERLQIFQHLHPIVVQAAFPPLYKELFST

CC(C)(C(=O)N[C@@H]1CC[C@@]2(S(=O)(=O)c3ccc(F)cc3)c3ccc(C(F)(C(F)(F)F)C(F)(F)F)cc3CC[C@@H]12)N1CCNCC1 [Example 200]
IC50 [1]: 63 nM

O=C([C@@H]1CC[C@@]2(S(=O)(=O)c3ccc(F)cc3)c3ccc(C(F)(C(F)(F)F)C(F)(F)F)cc3CC[C@@H]12)N1CCC(F)(F)C1 [Example 65]
IC50 [1]: 13 nM

NS(=O)(=O)N[C@H]1C[C@@H](NC(=O)[C@@H]2CC[C@@]3(S(=O)(=O)c4ccc(F)cc4)c4ccc(C(F)(C(F)(F)F)C(F)(F)F)cc4CC[C@@H]23)C1 [Example 280, (3R,3aS,9bS)-9b-((4-fluorophenyl)sulfonyl)-7-(perfluoropropan-2-yl)-N-((1s,3S)-3-(sulfamoylamino)cyclobutyl)-2,3,3a,4,5,9b-hexahydro-1H-cyclopenta[a]naphthalene-3-carboxamide]
IC50 [1]: 22 nM

CC(C)(O)CN1C(=O)CCN1C(=O)N[C@@H]1CC[C@@]2(S(=O)(=O)c3ccc(F)cc3)c3ccc(C(F)(C(F)(F)F)C(F)(F)F)cc3CC[C@@H]12 [Example 229, N-((3R,3aS,9bS)-9b-((4-fluorophenyl)sulfonyl)-7-(perfluoropropan-2-yl)-2,3,3a,4,59b-hexahydro-1H-cyclopenta[a]naphthalen-3-yl)-2-(2-hydroxy-2-methylpropyl)-3-oxopyrazolidin-1-carboxamide]
IC50 [1]: 5 nM

CS(=O)(=O)N[C@@H]1CC[C@@]2(S(=O)(=O)c3ccc(F)cc3)c3ccc(C(F)(C(F)(F)F)C(F)(F)F)cc3CC[C@@H]12 [Example 201, N-((3R,3aS,9bS)-9b-((4-fluorophenyl)sulfonyl)-7-(perfluoropropan-2-yl)-2,3,3a,4,5,9b-hexahydro-1H-cyclopenta[a]naphthalen-3-yl)methanesulfonamide]
IC50 [1]: 7 nM

O=C(Nc1ccnc2[nH]ncc12)[C@@H]1CC[C@@]2(S(=O)(=O)c3ccc(F)cc3)c3ccc(C(F)(C(F)(F)F)C(F)(F)F)cc3CC[C@@H]12 [Example 27]
IC50 [1]: 48 nM

O=C(N[C@@H]1CC[C@@]2(S(=O)(=O)c3ccc(F)cc3)c3ccc(C(F)(C(F)(F)F)C(F)(F)F)cc3CC[C@@H]12)C1(O)CCS(=O)(=O)CC1 [Example 144]
IC50 [1]: 40 nM

O=C(CO)N1CCC(O)(C(=O)N[C@@H]2CC[C@@]3(S(=O)(=O)c4ccc(F)cc4)c4ccc(C(F)(C(F)(F)F)C(F)(F)F)cc4CC[C@@H]23)CC1 [Example 256]
IC50 [1]: 4 nM

CS(=O)(=O)N[C@H]1C[C@H](NC(=O)[C@@H]2CC[C@@]3(S(=O)(=O)c4ccc(F)cc4)c4ccc(C(F)(C(F)(F)F)C(F)(F)F)cc4CC[C@@H]23)C1 [Example 276]
IC50 [1]: 52 nM

O=C(N[C@@H]1CC[C@@]2(S(=O)(=O)c3ccc(F)cc3)c3ccc(C(F)(C(F)(F)F)C(F)(F)F)cc3CC[C@@H]12)C1(O)CCS(=O)(=O)CC1 [Example 123, N-((3R,3aS,9bS)-9b-((4-fluorophenyl)sulfonyl)-7-(perfluoropropan-2-yl)-2,3,3a,4,5,9b-hexahydro-1H-cyclopenta[a]naphthalen-3-yl)-4-hydroxytetrahydro-2H-thiopyran-4-carboxamide 1,1-dioxide]
IC50 [1]: 2 nM

CS(=O)(=O)N1CC(O)(C(=O)N[C@@H]2CC[C@@]3(S(=O)(=O)c4ccc(F)cc4)c4ccc(C(F)(C(F)(F)F)C(F)(F)F)cc4CC[C@@H]23)C1 [Example 168]
IC50 [1]: 28 nM

NC(=O)c1c(F)cc(C(=O)N[C@@H]2CC[C@@]3(S(=O)(=O)c4ccc(F)cc4)c4ccc(C(F)(C(F)(F)F)C(F)(F)F)cc4CC[C@@H]23)cc1F [Example 159]
IC50 [1]: 3 nM

O=C(N[C@@H]1CC[C@@]2(S(=O)(=O)c3ccc(F)cc3)c3ccc(C(F)(C(F)(F)F)C(F)(F)F)cc3CC[C@@H]12)[C@H](O)C(F)(F)F [Example 157]
IC50 [1]: 13 nM

C[C@H]1C[C@H](C(=O)O)CC[C@H]1C(=O)N[C@@H]1CC[C@@]2(S(=O)(=O)c3ccc(F)cc3)c3ccc(C(F)(C(F)(F)F)C(F)(F)F)cc3CC[C@@H]12 [Example 194]
IC50 [1]: 32 nM

O=C(O)C1CCCC(NC(=O)[C@@H]2CC[C@@]3(S(=O)(=O)c4ccc(F)cc4)c4ccc(C(F)(C(F)(F)F)C(F)(F)F)cc4CC[C@@H]23)C1 (some centres unmarked) [Example 99]
IC50 [1]: 14 nM

O=C(O)[C@H]1CC[C@H](C(=O)N[C@@H]2CC[C@@]3(S(=O)(=O)c4ccc(F)cc4)c4ccc(C(F)(C(F)(F)F)C(F)(F)F)cc4CC[C@@H]23)CC1 [Example 139]
IC50 [1]: 24 nM

CS(=O)(=O)N1CCC(NC(=O)[C@@H]2CC[C@@]3(S(=O)(=O)c4ccc(F)cc4)c4ccc(C(F)(C(F)(F)F)C(F)(F)F)cc4CC[C@@H]23)CC1 [Example 77]
IC50 [1]: 4 nM

CNC(=O)CN[C@@H]1CC[C@@]2(S(=O)(=O)c3ccc(F)cc3)c3ccc(C(F)(C(F)(F)F)C(F)(F)F)cc3CC[C@@H]12 [Example 208, 2-(((3R,3 aS,9bS)-9b-((4-fluorophenyl)sulfonyl)-7-(perfluoropropan-2-yl)-2,3,3a,4,5,9b-hexahydro-1H-cyclopenta[a]naphthalen-3-yl)amino)-N-methylacetamide]
IC50: 16 nM

O=C(O)C1CCN(C(=O)[C@@H]2CC[C@@]3(S(=O)(=O)c4ccc(F)cc4)c4ccc(C(F)(C(F)(F)F)C(F)(F)F)cc4CC[C@@H]23)C1 (some centres unmarked) [Example 91]
IC50 [1]: 40 nM

CC(C)(N)C(=O)N[C@@H]1CC[C@@]2(S(=O)(=O)c3ccc(F)cc3)c3ccc(C(F)(C(F)(F)F)C(F)(F)F)cc3CC[C@@H]12 [Example 197]
IC50 [1]: 30 nM

O=C([C@@H]1CC[C@@]2(S(=O)(=O)c3ccc(F)cc3)c3ccc(C(F)(C(F)(F)F)C(F)(F)F)cc3CC[C@@H]12)N1CC(F)(F)C(F)(F)C1 [Example 63]
IC50 [1]: 21 nM

NS(=O)(=O)N[C@H]1C[C@@H](NC(=O)[C@@H]2CC[C@@]3(S(=O)(=O)c4ccc(F)cc4)c4ccc(C(F)(C(F)(F)F)C(F)(F)F)cc4CC[C@@H]23)C1 [Example 281]
IC50 [1]: 58 nM

CC(NS(=O)(=O)c1cnn(C)c1)[C@@H]1CC[C@@]2(S(=O)(=O)c3ccc(F)cc3)c3ccc(C(F)(C(F)(F)F)C(F)(F)F)cc3CC[C@@H]12 (stereo partly drawn) [Example 272, N-(1-((3R,3aS,9bS)-9b-((4-fluorophenyl)sulfonyl)-7-(perfluoropropan-2-yl)-2,3,3a,4,5,9b-hexahydro-1H-cyclopenta[a]naphthalen-3-yl)ethyl)-1-methyl-1H-pyrazole-4-sulfonamide]
IC50 [1]: 27 nM

O=C1CC2(CCN(C(=O)[C@@H]3CC[C@@]4(S(=O)(=O)c5ccc(F)cc5)c5ccc(C(F)(C(F)(F)F)C(F)(F)F)cc5CC[C@@H]34)CC2)N1 [Example 84]
IC50 [1]: 5 nM

O=C(O)C1CCCC(NC(=O)[C@@H]2CC[C@@]3(S(=O)(=O)c4ccc(F)cc4)c4ccc(C(F)(C(F)(F)F)C(F)(F)F)cc4CC[C@@H]23)C1 (some centres unmarked) [Example 98]
IC50 [1]: 22 nM

O=C(O)C1CCCC(NC(=O)[C@@H]2CC[C@@]3(S(=O)(=O)c4ccc(F)cc4)c4ccc(C(F)(C(F)(F)F)C(F)(F)F)cc4CC[C@@H]23)C1 (some centres unmarked) [Example 100]
IC50 [1]: 53 nM

O=C(O)C1CC2(C1)CC(C(=O)N[C@@H]1CC[C@@]3(S(=O)(=O)c4ccc(F)cc4)c4ccc(C(F)(C(F)(F)F)C(F)(F)F)cc4CC[C@@H]13)C2 (some centres unmarked) [Example 141]
IC50 [1]: 7 nM

CC(C)(O)CC(=O)N[C@@H]1CC[C@@]2(S(=O)(=O)c3ccc(F)cc3)c3ccc(C(F)(C(F)(F)F)C(F)(F)F)cc3NC[C@@H]12 [Example 221]
IC50 [1]: 45 nM

CC(NC(=O)c1ccncc1)[C@@H]1CC[C@@]2(S(=O)(=O)c3ccc(F)cc3)c3ccc(C(F)(C(F)(F)F)C(F)(F)F)cc3CC[C@@H]12 (some centres unmarked) [Example 264]
IC50 [1]: 82 nM

O=C(O)[C@H]1CC[C@](O)(C(=O)N[C@@H]2CC[C@@]3(S(=O)(=O)c4ccc(F)cc4)c4ccc(C(F)(C(F)(F)F)C(F)(F)F)cc4CC[C@@H]23)CC1 [Example 191, (1s,4s)-4-(((3R,3aS,9bS)-9b-((4-fluorophenyl)sulfonyl)-7-(perfluoropropan-2-yl)-2,3,3a,4,5,9b-hexahydro-1H-cyclopenta[a]naphthalen-3-yl)carbamoyl)-4-hydroxycyclohexane-1-carboxylic acid]
IC50 [1]: 54 nM

O=C([C@@H]1CC[C@@]2(S(=O)(=O)c3ccc(F)cc3)c3ccc(C(F)(C(F)(F)F)C(F)(F)F)cc3CC[C@@H]12)N1CCC2(CC1)CNC2=O [Example 85]
IC50 [1]: 14 nM

CC(NC(=O)c1ccncc1)[C@@H]1CC[C@@]2(S(=O)(=O)c3ccc(F)cc3)c3ccc(C(F)(C(F)(F)F)C(F)(F)F)cc3CC[C@@H]12 (some centres unmarked) [Example 263]
IC50 [1]: 22 nM

O=C(NC12CCC(C(=O)O)(CC1)CC2)[C@@H]1CC[C@@]2(S(=O)(=O)c3ccc(F)cc3)c3ccc(C(F)(C(F)(F)F)C(F)(F)F)cc3CC[C@@H]12 [Example 103]
IC50 [1]: 31 nM

NC(=O)[C@H]1CC(F)(F)CN1C(=O)[C@@H]1CC[C@@]2(S(=O)(=O)c3ccc(F)cc3)c3ccc(C(F)(C(F)(F)F)C(F)(F)F)cc3CC[C@@H]12 [Example 66]
IC50 [1]: 15 nM

O=C(N[C@H]1CC[C@H](C(=O)O)CC1)[C@@H]1CC[C@@]2(S(=O)(=O)c3ccc(F)cc3)c3ccc(C(F)(C(F)(F)F)C(F)(F)F)cc3CC[C@@H]12 [Example 102]
IC50 [1]: 33 nM

CC(C)(N)[C@H](N)C(=O)N[C@@H]1CC[C@@]2(S(=O)(=O)c3ccc(F)cc3)c3ccc(C(F)(C(F)(F)F)C(F)(F)F)cc3CC[C@@H]12 [Example 198]
IC50 [1]: 17 nM

CS(=O)(=O)N1CCC(CNC(=O)[C@@H]2CC[C@@]3(S(=O)(=O)c4ccc(F)cc4)c4ccc(C(F)(C(F)(F)F)C(F)(F)F)cc4CC[C@@H]23)C1 (some centres unmarked) [Example 278]
IC50 [1]: 7 nM

CC1(O)CN(C(=O)N[C@@H]2CC[C@@]3(S(=O)(=O)c4ccc(F)cc4)c4ccc(C(F)(C(F)(F)F)C(F)(F)F)cc4CC[C@@H]23)C1 [Example 204]
IC50 [1]: 9 nM

O=C([C@@H]1CC[C@@]2(S(=O)(=O)c3ccc(F)cc3)c3ccc(C(F)(C(F)(F)F)C(F)(F)F)cc3CC[C@@H]12)N1CC(F)(F)C[C@@H]1CO [Example 64]
IC50 [1]: 37 nM

O=C1CC2(CCN(C(=O)[C@@H]3CC[C@@]4(S(=O)(=O)c5ccc(F)cc5)c5ccc(C(F)(C(F)(F)F)C(F)(F)F)cc5CC[C@@H]34)CC2)CN1 [Example 83]
IC50 [1]: 9 nM

O=C([C@@H]1CC[C@@]2(S(=O)(=O)c3ccc(F)cc3)c3ccc(C(F)(C(F)(F)F)C(F)(F)F)cc3CC[C@@H]12)N1CCS(=O)(=O)CC1 [Example 40]
IC50 [1]: 14 nM
